Tests used:
caspase-3 = biological target: T1, caspase-3 (Homo sapiens, UniProt P42574); experiment: Screening on caspases inhibiting activity (recombinant enzyme, fluorogenic AMC substrate); format: biochemical; conditions: Irreversible Inhibitors; for kinact/KI: read-out: Kobs/[I] for caspase-3
T1 construct: made in house
T1 sequence (P42574 29-175 limits assumed): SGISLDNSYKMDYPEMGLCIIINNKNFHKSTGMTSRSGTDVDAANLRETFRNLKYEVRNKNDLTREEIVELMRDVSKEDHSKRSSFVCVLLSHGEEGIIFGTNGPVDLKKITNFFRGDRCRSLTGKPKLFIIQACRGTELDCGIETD
T1 sequence (P42574 176-277 limits assumed): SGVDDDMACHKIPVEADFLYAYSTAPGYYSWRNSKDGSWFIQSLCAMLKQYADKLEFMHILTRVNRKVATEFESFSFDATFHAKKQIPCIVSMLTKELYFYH
Description: (§1) In the present experiment, recombinant caspases were purified from a transformed bacterium after human caspase genes were cloned into the expression vector pET, and then used in the experiment (Thornberry, N.A. et .al. Nature, 1992, 356, 768. Thombeny, N.A. Methods in Enzymology, 1994, 615.).
(§2) Enzymatic activity was measured by a known procedure (Walker N.P.C. et al., Cell 1994, 78, 343). Briefly, 10 ng of recombinant protein was mixed with 50 mM Tris(pH 7.0), 1mM DTT, 0.5 mM EDTA, 10% Glycerol buffer containing 1∼100 µM of enzyme substrate, Ac-YVAD-AMC or Ac-DEVD-AMC and then the changes by isolated AMC at 37°C were recorded. The inhibitory activity for caspases was calculated from the early enzyme reaction rate by measuring the changes with fluorescence excited at […] and emitted at 460 nm (Range; Ki<100nM).

caspase-1 = biological target: T2, caspase-1 (Homo sapiens, UniProt P29466); experiment: as above; format: biochemical; conditions: Irreversible Inhibitors; for kinact/KI: read-out: Kobs/[I] for caspase-1
T2 construct: made in house
T2 sequence (P29466 120-297 limits assumed): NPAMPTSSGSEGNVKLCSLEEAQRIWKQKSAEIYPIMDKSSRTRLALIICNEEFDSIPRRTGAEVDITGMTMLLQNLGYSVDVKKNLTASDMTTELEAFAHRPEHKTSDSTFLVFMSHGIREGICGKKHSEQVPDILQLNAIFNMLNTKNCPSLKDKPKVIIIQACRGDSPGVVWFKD
T2 sequence (P29466 317-404 limits assumed): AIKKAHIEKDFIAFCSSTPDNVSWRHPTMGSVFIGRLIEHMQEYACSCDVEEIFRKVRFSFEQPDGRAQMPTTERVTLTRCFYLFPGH
Description: as §1, §2

Jurkat T cell = experiment: MTT assay of cell death induced by Anti-FAS antibody CH11; format: cell-based; conditions: Homo sapiens; Jurkat T cell treated with Anti-FAS antibody CH11, MTT; read-out: ED50 FAS Induced cell death

Row | kinact/KI (caspase-3) | kinact/KI (caspase-1) | Kobs/[I] for caspase-3 (caspase-3) | Kobs/[I] for caspase-1 (caspase-1) | SMILES | EC50 (Jurkat T cell)
1 | 114 M⁻¹ s⁻¹ | 130000 M⁻¹ s⁻¹ | – | – | CC(C)[C@H](NC(=O)CCc1ccccc1)C1=NOC(Cc2ccccc2)(C(=O)N[C@@H](CC(=O)O)C(=O)COC(=O)c2c(Cl)cccc2Cl)C1 (mixture of isomers) [Compound 32, (3S)-3-{3-[2-methyl-(1S)-1-(phenylethylcarbonylamino)-propyl]-5-phenylmethyl-4,5-dihydro-isoxazole-5-carbonylamino}-4-keto-5-(2,6-dichlorobenzoyloxy)-pentanoic acid] | 1 to 10 µM
2 | 176000 M⁻¹ s⁻¹ | 30800 M⁻¹ s⁻¹ | – | – | CC1(C(=O)N[C@@H](CC(=O)O)C(=O)COC(=O)c2c(Cl)cccc2Cl)CC([C@H](CCC(=O)O)NC(=O)CCC(=O)O)=NO1 (single isomer, unassigned) [Compound 72] | 1 to 10 µM
3 | 197000 M⁻¹ s⁻¹ | 14000 M⁻¹ s⁻¹ | – | – | CCCC1(C(=O)N[C@@H](CC(=O)O)C(=O)COC(=O)c2c(Cl)cccc2Cl)CC([C@@H](NC(=O)CCC(=O)O)C(C)C)=NO1 (single isomer, unassigned) [Compound 76] | 1 to 10 µM
4 | 1.14e+06 M⁻¹ s⁻¹ | 14900 M⁻¹ s⁻¹ | – | – | CCCCC1(C(=O)N[C@@H](CC(=O)O)C(=O)COC(=O)c2c(Cl)cccc2Cl)CC([C@@H](NC(=O)CCC(=O)O)C(C)C)=NO1 (single isomer, unassigned) [Compound 80] | 1 to 10 µM
5 | 160 M⁻¹ s⁻¹ | 408000 M⁻¹ s⁻¹ | – | – | CC(C)[C@H](NC(=O)c1ccc2ccccc2n1)C1=NOC(Cc2ccccc2)(C(=O)N[C@@H](CC(=O)O)C(=O)COC(=O)c2c(Cl)cccc2Cl)C1 (stereo partly drawn) [Compound 42mp, (3S)-3-{3-[2-methyl-(1S)-1-(quinoline-2-yl-carbonylamino)-propyl]-5-phenylmethyl-4,5-dihydro-isoxazole-5-carbonylamino}-4-keto-5-(2,6-dichlorobenzoyloxy)-pentanoic acid] | 1 to 10 µM
6 | 371 M⁻¹ s⁻¹ | 577000 M⁻¹ s⁻¹ | – | – | CC(C)[C@H](NC(=O)c1cccc2ccccc12)C1=NOC(Cc2ccccc2)(C(=O)N[C@@H](CC(=O)O)C(=O)COC(=O)c2c(F)cccc2F)C1 (stereo partly drawn) [Compound 58, (3S)-3-{3-[2-methyl-(1S)-1-(naphthalene-1-carbonylamino)-propyl]-5-phenylmethyl-4,5-dihydro-isoxazole-5-carbonylamino}-4-keto-5-(2,6-difluorobenzoyloxy)-pentanoic acid] | 1 to 10 µM
7 | – | – | 28000 M⁻¹ s⁻¹ | 7560 M⁻¹ s⁻¹ | CC(C)[C@H](NC(=O)CCC(=O)O)C1=NOC(Cc2ccccc2)(C(=O)N[C@@H](CC(=O)O)C(=O)COC(=O)c2c(Cl)cccc2Cl)C1 (stereo partly drawn) [Compound 86, (3S)-3-{3-[2-methyl-(1S)-1-(succinoylamino)-propyl]-5-phenylmethyl-4,5-dihydro-isoxazole-5-carbonylamino}-4-keto-5-(2,6-dichlorobenzoyloxy)-pentanoic acid] | –
8 | – | – | 27400 M⁻¹ s⁻¹ | 3400 M⁻¹ s⁻¹ | COCC1(C(=O)N[C@@H](CC(=O)O)C(=O)COC(=O)c2c(Cl)cccc2Cl)CC([C@@H](NC(=O)CCC(=O)O)C(C)C)=NO1 (stereo partly drawn) [Compound 87, (3S)-3-{3-[2-methyl-(1S)-1-(succinoylamino)-propyl]-5-methoxymethyl-4,5-dihydro-isoxazole-5-carbonylamino}-4-keto-5-(2,6-dichlorobenzoyloxy)-pentanoic acid] | –
